Active and inactive are the calls of the source. Cut-off read from the data, not from the text of the source, for most assays here: actives have a measured Kd and inactives only a lower limit.
Legend:
[1] = target: Serine/threonine-protein kinase SIK3 (Homo sapiens, UniProt Q9Y2K2)
[2] = target: Rho-associated protein kinase 2 (Homo sapiens, UniProt O75116)
[3] = target: T1, Serine/threonine-protein kinase TAO2 (Homo sapiens, UniProt Q9UL54)
T1 sequence (Q9UL54 whole entry): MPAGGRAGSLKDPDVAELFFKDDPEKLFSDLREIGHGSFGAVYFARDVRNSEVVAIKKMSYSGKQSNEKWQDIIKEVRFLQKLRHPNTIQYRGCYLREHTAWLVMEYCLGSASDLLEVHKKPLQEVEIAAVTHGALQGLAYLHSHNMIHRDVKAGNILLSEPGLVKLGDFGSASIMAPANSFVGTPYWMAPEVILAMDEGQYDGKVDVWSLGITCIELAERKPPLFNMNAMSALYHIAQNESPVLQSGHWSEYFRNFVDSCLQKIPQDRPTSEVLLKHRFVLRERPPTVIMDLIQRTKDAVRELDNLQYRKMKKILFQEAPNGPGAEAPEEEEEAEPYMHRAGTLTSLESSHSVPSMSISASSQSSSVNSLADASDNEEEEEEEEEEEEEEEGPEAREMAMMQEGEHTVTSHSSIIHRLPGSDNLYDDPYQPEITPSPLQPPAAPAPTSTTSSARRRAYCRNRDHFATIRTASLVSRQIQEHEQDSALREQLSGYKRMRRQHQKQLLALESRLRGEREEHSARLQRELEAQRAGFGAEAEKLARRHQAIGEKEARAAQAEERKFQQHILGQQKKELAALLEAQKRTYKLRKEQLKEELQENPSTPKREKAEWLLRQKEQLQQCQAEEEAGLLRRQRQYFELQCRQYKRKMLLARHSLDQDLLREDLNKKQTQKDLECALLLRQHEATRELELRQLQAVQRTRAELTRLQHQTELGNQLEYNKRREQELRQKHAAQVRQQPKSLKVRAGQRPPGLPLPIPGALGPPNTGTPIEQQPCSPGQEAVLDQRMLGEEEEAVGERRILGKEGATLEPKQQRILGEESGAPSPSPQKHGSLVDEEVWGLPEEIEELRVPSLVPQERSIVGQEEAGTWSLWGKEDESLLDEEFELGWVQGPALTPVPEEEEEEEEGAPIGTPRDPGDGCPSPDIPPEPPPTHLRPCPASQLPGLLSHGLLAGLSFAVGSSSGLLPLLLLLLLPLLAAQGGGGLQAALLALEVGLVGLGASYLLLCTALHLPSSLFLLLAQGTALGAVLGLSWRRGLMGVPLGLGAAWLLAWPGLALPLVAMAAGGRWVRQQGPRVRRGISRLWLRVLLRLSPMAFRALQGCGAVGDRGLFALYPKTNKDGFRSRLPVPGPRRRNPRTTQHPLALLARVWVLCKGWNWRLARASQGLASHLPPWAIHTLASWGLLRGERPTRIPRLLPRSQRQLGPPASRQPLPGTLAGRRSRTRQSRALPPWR

Ephrin type-B receptor 6 = target: T2, Ephrin type-B receptor 6 (Homo sapiens, UniProt O15197)
T2 sequence (O15197 whole entry): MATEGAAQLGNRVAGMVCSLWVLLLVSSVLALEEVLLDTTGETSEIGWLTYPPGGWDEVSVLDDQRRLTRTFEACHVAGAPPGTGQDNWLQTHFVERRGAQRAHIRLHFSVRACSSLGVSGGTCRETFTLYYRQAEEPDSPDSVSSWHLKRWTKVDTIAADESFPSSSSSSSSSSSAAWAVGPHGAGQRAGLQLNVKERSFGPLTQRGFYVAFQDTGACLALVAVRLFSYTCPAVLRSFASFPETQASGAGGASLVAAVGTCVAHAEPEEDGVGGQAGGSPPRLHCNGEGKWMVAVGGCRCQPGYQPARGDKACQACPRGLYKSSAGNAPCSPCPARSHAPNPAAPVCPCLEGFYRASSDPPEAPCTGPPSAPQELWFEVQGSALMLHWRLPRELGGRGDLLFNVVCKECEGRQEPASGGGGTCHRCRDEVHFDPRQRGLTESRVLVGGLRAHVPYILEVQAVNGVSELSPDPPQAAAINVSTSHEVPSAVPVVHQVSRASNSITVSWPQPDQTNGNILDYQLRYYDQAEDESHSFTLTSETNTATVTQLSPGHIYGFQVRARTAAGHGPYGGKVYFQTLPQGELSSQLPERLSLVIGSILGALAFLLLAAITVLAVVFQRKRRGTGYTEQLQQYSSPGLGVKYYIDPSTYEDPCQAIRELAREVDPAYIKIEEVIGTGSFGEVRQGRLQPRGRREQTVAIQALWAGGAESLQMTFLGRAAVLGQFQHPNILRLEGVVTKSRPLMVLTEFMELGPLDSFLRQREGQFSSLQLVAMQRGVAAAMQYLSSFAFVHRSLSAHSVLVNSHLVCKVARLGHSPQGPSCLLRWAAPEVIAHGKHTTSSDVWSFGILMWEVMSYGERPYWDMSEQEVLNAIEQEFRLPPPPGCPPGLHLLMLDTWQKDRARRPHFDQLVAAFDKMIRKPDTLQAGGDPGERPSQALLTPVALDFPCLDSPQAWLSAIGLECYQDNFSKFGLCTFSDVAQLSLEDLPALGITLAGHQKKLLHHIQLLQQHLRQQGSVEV

Actin-related protein 2 = Actin-related protein 2 (Homo sapiens, UniProt P61160)
[4] = target: Ribosomal protein S6 kinase alpha-1 (Homo sapiens, UniProt Q15418)
Chain of Ribosomal protein S6 kinase alpha-1 (Q15418 whole entry): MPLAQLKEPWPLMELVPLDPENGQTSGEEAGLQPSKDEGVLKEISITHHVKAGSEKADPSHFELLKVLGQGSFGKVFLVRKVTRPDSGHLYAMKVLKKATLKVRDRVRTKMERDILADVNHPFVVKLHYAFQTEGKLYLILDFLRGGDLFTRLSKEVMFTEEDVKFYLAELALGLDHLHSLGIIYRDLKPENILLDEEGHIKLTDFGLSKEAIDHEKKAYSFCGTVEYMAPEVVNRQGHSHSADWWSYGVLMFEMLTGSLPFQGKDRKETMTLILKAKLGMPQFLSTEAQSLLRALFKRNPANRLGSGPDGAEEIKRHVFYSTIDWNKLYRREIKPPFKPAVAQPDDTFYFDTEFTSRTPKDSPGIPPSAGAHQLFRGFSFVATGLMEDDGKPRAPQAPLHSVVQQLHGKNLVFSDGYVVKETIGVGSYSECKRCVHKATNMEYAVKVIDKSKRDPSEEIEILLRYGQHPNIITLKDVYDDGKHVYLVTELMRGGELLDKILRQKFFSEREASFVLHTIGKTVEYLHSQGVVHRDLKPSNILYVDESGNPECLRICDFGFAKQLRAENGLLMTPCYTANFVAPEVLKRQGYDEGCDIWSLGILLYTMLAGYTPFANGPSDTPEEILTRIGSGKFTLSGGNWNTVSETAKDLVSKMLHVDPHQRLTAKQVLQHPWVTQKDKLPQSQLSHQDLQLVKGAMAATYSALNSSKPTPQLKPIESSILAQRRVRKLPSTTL

[5] = target: Serine/threonine-protein kinase/endoribonuclease IRE1 (Homo sapiens, UniProt O75460)
Chain of Serine/threonine-protein kinase/endoribonuclease IRE1 (O75460 whole entry): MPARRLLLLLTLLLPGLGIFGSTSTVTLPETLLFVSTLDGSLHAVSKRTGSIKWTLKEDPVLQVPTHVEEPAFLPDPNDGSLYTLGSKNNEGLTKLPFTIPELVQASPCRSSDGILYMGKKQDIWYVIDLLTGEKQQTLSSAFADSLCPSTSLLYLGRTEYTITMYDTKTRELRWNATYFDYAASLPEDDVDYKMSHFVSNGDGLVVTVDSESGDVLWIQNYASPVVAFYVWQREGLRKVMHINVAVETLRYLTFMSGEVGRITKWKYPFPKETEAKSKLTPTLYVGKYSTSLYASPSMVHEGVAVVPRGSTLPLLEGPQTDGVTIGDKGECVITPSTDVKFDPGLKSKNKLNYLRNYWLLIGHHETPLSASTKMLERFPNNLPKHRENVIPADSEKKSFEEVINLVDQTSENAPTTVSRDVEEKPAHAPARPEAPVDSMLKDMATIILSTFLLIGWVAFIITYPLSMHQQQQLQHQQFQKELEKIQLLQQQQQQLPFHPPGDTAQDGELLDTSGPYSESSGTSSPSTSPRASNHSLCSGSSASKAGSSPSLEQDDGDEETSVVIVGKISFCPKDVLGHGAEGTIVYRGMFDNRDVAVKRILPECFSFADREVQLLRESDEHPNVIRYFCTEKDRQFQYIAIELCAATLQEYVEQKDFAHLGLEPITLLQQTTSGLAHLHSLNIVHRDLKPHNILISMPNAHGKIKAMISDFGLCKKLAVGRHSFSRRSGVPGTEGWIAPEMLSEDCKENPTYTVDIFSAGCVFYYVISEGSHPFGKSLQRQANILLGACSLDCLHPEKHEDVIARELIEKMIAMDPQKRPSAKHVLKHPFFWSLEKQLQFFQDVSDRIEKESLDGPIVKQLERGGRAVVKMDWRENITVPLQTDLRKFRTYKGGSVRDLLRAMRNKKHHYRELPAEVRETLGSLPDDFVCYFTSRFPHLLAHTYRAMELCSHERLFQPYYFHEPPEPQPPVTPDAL

[6] = target: Cyclin-dependent kinase 1 (Homo sapiens, UniProt P06493)
Chain of Cyclin-dependent kinase 1 (P06493 whole entry): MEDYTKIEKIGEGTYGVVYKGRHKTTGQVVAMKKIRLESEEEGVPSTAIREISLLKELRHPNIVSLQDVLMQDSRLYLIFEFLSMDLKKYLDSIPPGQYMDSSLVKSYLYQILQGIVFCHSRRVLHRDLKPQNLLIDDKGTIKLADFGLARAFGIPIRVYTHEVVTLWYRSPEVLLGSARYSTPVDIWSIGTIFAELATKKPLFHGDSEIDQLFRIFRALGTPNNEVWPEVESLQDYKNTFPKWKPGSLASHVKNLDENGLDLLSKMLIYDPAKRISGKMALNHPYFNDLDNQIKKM

[7] = target: Dual specificity tyrosine-phosphorylation-regulated kinase 1A (Homo sapiens, UniProt Q13627)
Note: in the data inactive means no Kd found up to 30 µM.

Chain of Rho-associated protein kinase 2 (O75116 whole entry): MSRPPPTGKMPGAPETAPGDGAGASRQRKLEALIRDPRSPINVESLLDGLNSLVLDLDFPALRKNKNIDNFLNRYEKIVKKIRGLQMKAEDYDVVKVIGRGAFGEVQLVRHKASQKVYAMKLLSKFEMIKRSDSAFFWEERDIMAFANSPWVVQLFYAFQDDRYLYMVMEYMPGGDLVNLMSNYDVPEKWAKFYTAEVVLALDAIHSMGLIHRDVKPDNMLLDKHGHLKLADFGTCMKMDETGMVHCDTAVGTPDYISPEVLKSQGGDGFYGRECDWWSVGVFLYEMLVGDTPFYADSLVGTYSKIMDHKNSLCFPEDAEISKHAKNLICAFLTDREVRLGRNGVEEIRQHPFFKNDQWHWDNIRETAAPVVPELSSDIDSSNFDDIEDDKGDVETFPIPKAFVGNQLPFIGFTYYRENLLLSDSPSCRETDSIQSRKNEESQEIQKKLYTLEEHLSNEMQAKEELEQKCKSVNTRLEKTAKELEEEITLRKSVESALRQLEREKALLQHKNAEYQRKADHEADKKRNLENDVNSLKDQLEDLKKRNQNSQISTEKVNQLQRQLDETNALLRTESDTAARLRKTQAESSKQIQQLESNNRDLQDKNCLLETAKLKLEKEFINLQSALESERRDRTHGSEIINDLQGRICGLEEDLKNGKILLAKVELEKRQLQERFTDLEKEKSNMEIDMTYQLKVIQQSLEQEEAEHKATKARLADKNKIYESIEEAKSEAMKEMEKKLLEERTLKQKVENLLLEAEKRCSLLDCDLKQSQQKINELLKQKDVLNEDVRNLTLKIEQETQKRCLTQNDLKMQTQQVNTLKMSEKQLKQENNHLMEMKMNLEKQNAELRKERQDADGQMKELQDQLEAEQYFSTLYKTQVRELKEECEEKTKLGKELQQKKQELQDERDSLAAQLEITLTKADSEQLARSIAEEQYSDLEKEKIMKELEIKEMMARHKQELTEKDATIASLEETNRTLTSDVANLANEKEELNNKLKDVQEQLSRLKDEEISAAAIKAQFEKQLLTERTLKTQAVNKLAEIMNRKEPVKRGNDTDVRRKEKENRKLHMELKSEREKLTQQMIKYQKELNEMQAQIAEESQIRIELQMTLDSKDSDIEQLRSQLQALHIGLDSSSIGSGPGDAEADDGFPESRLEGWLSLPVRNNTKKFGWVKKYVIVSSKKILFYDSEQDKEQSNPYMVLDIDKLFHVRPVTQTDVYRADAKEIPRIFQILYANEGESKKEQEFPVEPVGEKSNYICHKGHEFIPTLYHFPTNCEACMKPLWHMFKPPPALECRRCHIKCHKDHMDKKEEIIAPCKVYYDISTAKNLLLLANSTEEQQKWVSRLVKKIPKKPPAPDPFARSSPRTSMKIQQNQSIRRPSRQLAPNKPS
Chain of Serine/threonine-protein kinase SIK3 (Q9Y2K2 whole entry): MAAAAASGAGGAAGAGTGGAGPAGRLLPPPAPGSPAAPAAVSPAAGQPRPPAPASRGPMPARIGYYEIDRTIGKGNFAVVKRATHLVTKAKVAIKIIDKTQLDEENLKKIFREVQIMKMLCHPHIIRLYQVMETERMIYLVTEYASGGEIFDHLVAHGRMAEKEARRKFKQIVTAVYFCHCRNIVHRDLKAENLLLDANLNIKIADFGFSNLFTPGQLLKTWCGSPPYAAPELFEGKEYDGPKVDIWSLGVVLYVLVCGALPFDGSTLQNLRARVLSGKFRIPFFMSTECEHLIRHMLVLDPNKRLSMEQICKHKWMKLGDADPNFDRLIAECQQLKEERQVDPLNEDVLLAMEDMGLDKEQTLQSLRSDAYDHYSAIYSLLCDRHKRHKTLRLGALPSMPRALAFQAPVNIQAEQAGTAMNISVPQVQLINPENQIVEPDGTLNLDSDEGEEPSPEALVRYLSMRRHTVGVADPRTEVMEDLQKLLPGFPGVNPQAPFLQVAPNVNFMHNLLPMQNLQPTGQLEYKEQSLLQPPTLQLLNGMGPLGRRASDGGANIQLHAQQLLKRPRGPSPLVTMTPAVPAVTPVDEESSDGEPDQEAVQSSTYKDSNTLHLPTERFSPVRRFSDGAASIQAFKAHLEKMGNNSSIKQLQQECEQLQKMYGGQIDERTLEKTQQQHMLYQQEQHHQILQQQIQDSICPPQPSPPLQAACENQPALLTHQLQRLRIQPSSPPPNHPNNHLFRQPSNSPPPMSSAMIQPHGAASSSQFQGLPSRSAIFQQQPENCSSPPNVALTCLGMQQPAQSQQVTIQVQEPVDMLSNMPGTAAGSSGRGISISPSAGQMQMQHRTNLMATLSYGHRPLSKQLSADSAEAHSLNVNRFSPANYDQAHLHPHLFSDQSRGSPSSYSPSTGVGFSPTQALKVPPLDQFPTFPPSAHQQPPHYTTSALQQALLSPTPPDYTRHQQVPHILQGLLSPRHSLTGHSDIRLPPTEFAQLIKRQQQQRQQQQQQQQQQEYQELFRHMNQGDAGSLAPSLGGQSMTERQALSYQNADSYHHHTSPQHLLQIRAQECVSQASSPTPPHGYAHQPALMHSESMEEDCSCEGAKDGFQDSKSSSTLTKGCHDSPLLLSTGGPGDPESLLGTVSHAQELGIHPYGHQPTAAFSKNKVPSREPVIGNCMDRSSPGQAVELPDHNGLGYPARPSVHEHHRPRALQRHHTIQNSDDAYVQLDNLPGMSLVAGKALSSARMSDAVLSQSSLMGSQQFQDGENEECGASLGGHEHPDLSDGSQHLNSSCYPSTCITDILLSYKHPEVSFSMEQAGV

Row | Kd [1] | Kd [2] | Kd [3] | Kd (Ephrin type-B receptor 6) | Kd (Actin-related protein 2) | Kd [4] | Kd [5] | Kd [6] | Kd [7] | Compound
1 | > 30 µM (inactive) | > 30 µM (inactive) | > 30 µM (inactive) | > 30 µM (inactive) | > 30 µM (inactive) | > 30 µM (inactive) | > 30 µM (inactive) |  |  | CCN1CCN(Cc2ccc(Nc3ncc(F)c(-c4cc(F)c5nc(C)n(C(C)C)c5c4)n3)nc2)CC1 [ABEMACICLIB]
2 |  |  |  |  | > 30 µM (inactive) |  |  | > 30 µM (inactive) |  | CN(C)C/C=C/C(=O)Nc1cc2c(Nc3ccc(F)c(Cl)c3)ncnc2cc1O[C@H]1CCOC1 [AFATINIB]
3 | > 30 µM (inactive) |  | > 30 µM (inactive) | > 30 µM (inactive) | > 30 µM (inactive) | > 30 µM (inactive) | > 30 µM (inactive) | > 30 µM (inactive) |  | CCN(CCCOc1ccc2c(Nc3cc(CC(=O)Nc4cccc(F)c4)n[nH]3)ncnc2c1)CCOP(=O)(O)O [BARASERTIB]
4 |  |  |  |  | > 30 µM (inactive) |  |  | > 30 µM (inactive) |  | C[C@@]1(C(=O)Nc2ccc(F)nc2)CCCN1c1nc(Nc2cc(C3CC3)n[nH]2)c2cccn2n1 [BMS-754807]
5 | > 30 µM (inactive) | > 30 µM (inactive) | > 30 µM (inactive) | > 30 µM (inactive) |  | > 30 µM (inactive) | > 30 µM (inactive) | > 30 µM (inactive) | > 30 µM (inactive) | CCOc1ccn(-c2ccc(F)cc2)c(=O)c1C(=O)Nc1ccc(Oc2ccnc(N)c2Cl)c(F)c1 [BMS-777607]
6 | > 30 µM (inactive) | > 30 µM (inactive) | > 30 µM (inactive) | > 30 µM (inactive) | > 30 µM (inactive) | > 30 µM (inactive) | > 30 µM (inactive) | > 30 µM (inactive) |  | c1cc(OCCN2CCCCC2)cc(-c2n[nH]c3ccc(-c4nc[nH]n4)cc23)c1 [CC-401]
7 |  |  |  |  | > 30 µM (inactive) |  |  | > 30 µM (inactive) |  | COc1cc2c(Oc3ccc4[nH]c(C)cc4c3F)ncnc2cc1OCCCN1CCCC1 [CEDIRANIB]
8 | > 30 µM (inactive) | > 30 µM (inactive) | > 30 µM (inactive) | > 30 µM (inactive) | > 30 µM (inactive) | > 30 µM (inactive) | > 30 µM (inactive) | > 30 µM (inactive) |  | Cn1c(=O)n(-c2ccc(C(C)(C)C#N)cc2)c2c3cc(-c4cnc5ccccc5c4)ccc3ncc21 [DACTOLISIB]
9 | > 30 µM (inactive) | 56.1 µM (active) | > 30 µM (inactive) | > 30 µM (inactive) |  | > 30 µM (inactive) | > 30 µM (inactive) | > 30 µM (inactive) | > 30 µM (inactive) | CC[C@@](C)(Nc1ccnc(-c2c[nH]c3ncccc23)n1)C(=O)NCC(F)(F)F [DECERNOTINIB]
10 | > 30 µM (inactive) |  | > 30 µM (inactive) | > 30 µM (inactive) | > 30 µM (inactive) | > 30 µM (inactive) | > 30 µM (inactive) | > 30 µM (inactive) | > 30 µM (inactive) | O=S(=O)(c1cccc2c(O)nccc12)N1CCCNCC1 [HYDROXYFASUDIL]
11 |  |  |  |  | > 30 µM (inactive) |  |  | > 30 µM (inactive) |  | CC1(C)CNc2cc(NC(=O)c3cccnc3NCc3ccncc3)ccc21 [MOTESANIB]
12 |  |  |  |  | > 30 µM (inactive) |  |  | > 30 µM (inactive) |  | Cn1cnc2c(F)c(Nc3ccc(Br)cc3Cl)c(C(=O)NOCCO)cc21 [SELUMETINIB]
13 | > 30 µM (inactive) | > 30 µM (inactive) | > 30 µM (inactive) | > 30 µM (inactive) | > 30 µM (inactive) | 5.92 µM (active) | > 30 µM (inactive) |  |  | O=C(O)c1ccc2c(c1)nc(Nc1cccc(Cl)c1)c1ccncc12 [SILMITASERTIB]
14 | > 30 µM (inactive) | > 30 µM (inactive) | > 30 µM (inactive) |  | > 30 µM (inactive) | > 30 µM (inactive) | > 30 µM (inactive) | > 30 µM (inactive) | > 30 µM (inactive) | Cn1c(=O)c(F)c(Nc2ccc(I)cc2F)c2c(=O)n(C[C@@H](O)CO)cnc21 [TAK-733]
15 |  |  |  |  | > 30 µM (inactive) |  |  |  |  | COc1cc2c(N3CCN(C(=O)Nc4ccc(OC(C)C)cc4)CC3)ncnc2cc1OCCCN1CCCCC1 [TANDUTINIB]

Row | Compound | Kd [1] | Kd [2] | Kd [3] | Kd (Ephrin type-B receptor 6) | Kd (Actin-related protein 2) | Kd [4] | Kd [5] | Kd [6] | Kd [7]
16 | NC[C@@](O)(c1ccc(Cl)cc1)c1ccc(-c2cn[nH]c2)cc1 [AT-13148] | > 30 µM (inactive) | 0.026 µM (active) | > 30 µM (inactive) | > 30 µM (inactive) | > 30 µM (inactive) | > 30 µM (inactive) | > 30 µM (inactive) | > 30 µM (inactive) | 
17 | O=S(=O)(c1cccc2cnccc12)N1CCCNCC1 [FASUDIL] | > 30 µM (inactive) | 0.943 µM (active) | > 30 µM (inactive) | > 30 µM (inactive) | > 30 µM (inactive) | > 30 µM (inactive) | > 30 µM (inactive) |  | > 30 µM (inactive)
18 | C[C@]1(O)C[C@@H](c2nc(-c3ccc4ccc(-c5ccccc5)nc4c3)c3c(N)nccn32)C1 [LINSITINIB] | > 30 µM (inactive) |  |  | > 30 µM (inactive) | > 30 µM (inactive) | > 30 µM (inactive) | > 30 µM (inactive) |  | 
19 | N#CCNC(=O)c1ccc(-c2ccnc(Nc3ccc(N4CCOCC4)cc3)n2)cc1 [MOMELOTINIB] | 0.859 µM (active) | 0.219 µM (active) | > 30 µM (inactive) | > 30 µM (inactive) | > 30 µM (inactive) |  | > 30 µM (inactive) | > 30 µM (inactive) | > 30 µM (inactive)
20 | CN(c1ncccc1CNc1nc(Nc2ccc3c(c2)CC(=O)N3)ncc1C(F)(F)F)S(C)(=O)=O [PF-00562271] | > 30 µM (inactive) |  | > 30 µM (inactive) | > 30 µM (inactive) | > 30 µM (inactive) | > 30 µM (inactive) | > 30 µM (inactive) | 1.51 µM (active) | 
21 | COCCN1CCN(Cc2ccc(-c3n[nH]c4c3C(=O)c3c(NC(=O)NN5CCOCC5)cccc3-4)cc2)CC1 [RGB-286638] | > 30 µM (inactive) | > 30 µM (inactive) | > 30 µM (inactive) | > 30 µM (inactive) | > 30 µM (inactive) | > 30 µM (inactive) | > 30 µM (inactive) | 1.34 µM (active) | 
22 | CN1CCN(c2nc(C3=C(c4c[nH]c5ccccc45)C(=O)NC3=O)c3ccccc3n2)CC1 [SOTRASTAURIN] | > 30 µM (inactive) | > 30 µM (inactive) | > 30 µM (inactive) | > 30 µM (inactive) | > 30 µM (inactive) | > 30 µM (inactive) | > 30 µM (inactive) |  | > 30 µM (inactive)

From ChEMBL document CHEMBL3991601, “The target landscape of clinical kinase drugs” (Science, 2017)
